Molecular target: Transient receptor potential cation channel subfamily A member 1 (Homo sapiens, UniProt O75762)
Test: FLIPR Assay of Inhibitory Activity on Human TRPA1
Method: Table 3.1: The cell analysis plate was placed in an FLIPR instrument ([…]), and the compound in the compound plate was added to the corresponding hole on the cell analysis plate (First addition) via an automatic program, and the calcium ion fluorescence signal was recorded to determine whether the compound had agonistic activity. After 10 minutes, CaCl2 (Second addition) was added a final concentration of 3 mM to each well to stimulate intracellular calcium flux signals. Ca++-dependent fluorescence signal was monitored continuously at 538 nm wavelength to analyze the inhibitory activity of the compounds.

Sequence of Transient receptor potential cation channel subfamily A member 1 (O75762 whole entry): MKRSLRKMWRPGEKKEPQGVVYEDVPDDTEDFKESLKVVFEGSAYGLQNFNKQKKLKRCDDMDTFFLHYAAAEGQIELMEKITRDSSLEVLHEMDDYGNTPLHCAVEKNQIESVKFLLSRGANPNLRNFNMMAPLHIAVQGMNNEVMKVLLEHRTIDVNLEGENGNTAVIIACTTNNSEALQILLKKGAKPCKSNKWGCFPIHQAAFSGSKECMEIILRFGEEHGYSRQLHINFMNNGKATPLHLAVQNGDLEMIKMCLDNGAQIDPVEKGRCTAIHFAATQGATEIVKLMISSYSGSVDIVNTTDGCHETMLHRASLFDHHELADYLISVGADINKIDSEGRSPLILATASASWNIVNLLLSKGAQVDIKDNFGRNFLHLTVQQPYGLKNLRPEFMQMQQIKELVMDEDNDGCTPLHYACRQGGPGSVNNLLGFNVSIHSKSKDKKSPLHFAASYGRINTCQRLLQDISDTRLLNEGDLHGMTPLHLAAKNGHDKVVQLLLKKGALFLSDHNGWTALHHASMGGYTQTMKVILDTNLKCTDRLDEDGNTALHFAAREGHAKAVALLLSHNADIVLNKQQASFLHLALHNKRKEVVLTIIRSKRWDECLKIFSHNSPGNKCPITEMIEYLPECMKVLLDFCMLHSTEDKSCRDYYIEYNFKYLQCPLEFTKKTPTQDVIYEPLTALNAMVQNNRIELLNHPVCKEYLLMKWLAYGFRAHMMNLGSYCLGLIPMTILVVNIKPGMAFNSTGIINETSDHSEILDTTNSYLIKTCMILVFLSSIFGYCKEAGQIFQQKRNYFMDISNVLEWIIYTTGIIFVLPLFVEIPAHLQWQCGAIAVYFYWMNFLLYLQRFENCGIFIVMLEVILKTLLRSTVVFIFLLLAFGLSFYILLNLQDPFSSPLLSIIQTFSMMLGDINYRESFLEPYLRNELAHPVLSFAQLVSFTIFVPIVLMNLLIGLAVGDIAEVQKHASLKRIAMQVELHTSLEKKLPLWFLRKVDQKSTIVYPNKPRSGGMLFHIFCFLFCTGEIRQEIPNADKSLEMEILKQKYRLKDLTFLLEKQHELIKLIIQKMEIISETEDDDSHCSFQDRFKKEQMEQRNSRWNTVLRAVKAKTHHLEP

Row | SMILES | IC50 [nM]
1 | O=C(N1CCN(c2cccc(C(F)(F)F)n2)CC1)C1(Nc2ccc(Cl)cc2)CCCC1 [US12391660, Compound 20] | 56
2 | O=C(N1CCN(c2ccc(C(F)(F)F)nn2)CC1)C1(Nc2ccc([N+](=O)[O-])cc2)CCCC1 [US12391660, Compound 21] | 875
3 | CN(c1ccc(C#N)cc1)C1(C(=O)N2CCC(C(C)(C)C)CC2)CCCC1 [US12391660, Compound 44] | 280
4 | Cn1cc(OC2(C(=O)N3CCN(c4ccc(C(F)(F)F)cn4)CC3)CCCC2)nc1C#N [US12391660, Compound 61] | 2870

— BindingDB's records for patent US12391660 (Hangzhou Westan Pharmaceutical Technology Co., 2025)
